This note sets out measurements from patent publication US11286288B2, “Pharmaceutical compound” (VALLAURIX PTE. LTD., priority 2015, dated 2022).

What all share (assay type): cell-based
Test [1] has as its target T1, MC1R (Homo sapiens, UniProt Q01726).
T1 construct: human melanocyte cultures, coded 1750 and 1753, that were derived from 2 different donors expressing functional MC1R; endogenous in cells; host or cells: primary human melanocyte cultures 1750 and 1753 (two donors)
Kind of test: cAMP radioimmunoassay in human melanocyte culture 1753. The method, then:
Compounds 1, 2, 3 and 4 were tested in various separate tests and using 2 different human melanocyte cultures, coded 1750 and 1753, that were derived from 2 different donors expressing functional MC1R. The melanocytes were plated at a density of 0.3*10^6 cells/well. After 48 hours, the melanocytes were treated with the different compound concentrations for 1 hour. Controls without compound were included in all experiments. […] The reaction was stopped by addition of 50 μl N HCl and the supernatant in each well was used to measure cAMP using a radioimmunoassay as described by Suzuki 1996 (Suzuki I, Cone R D, Im S, Nordlund ii, Abdel-Malek Z: “Binding of melanotropic hormones to the MC1 receptor on human melanocytes stimulates proliferation and melanogenesis”. Endocrinology 137: 1627-1633, 1996). Duplicate samples from each well were assayed with triplicate wells included in each compound group. The results from different tests cannot be compared due to differences in melanocyte cultures and to different passage number. The mean of 6 cAMP measurements per group was expressed as % of the control group. Statistical analysis was carried out using ANOVA followed by Newman Kuels test. In some cases, unpaired t-test was used.

Another test deals with tyrosinase. Kind of test: Tyrosinase activity (3H-tyrosine) in human melanocyte culture 1750. As to conditions: Test 4, melanocytes 1750, six days treatment; concentration not given. The method, then: Compounds 1, 2, 3 and 4 were tested in various separate tests and using 2 different human melanocyte cultures, coded 1750 and 1753, that were derived from 2 different donors expressing functional MC1R. The melanocytes were plated at a density of 0.3*10^6 cells onto 60 mm dishes (triplicate dishes/group). After 48 hours, the melanocytes were treated every other day for a total of six days with different doses of each compound. Controls without compound were included in all experiments. In some experiments reference compound NDP-MSH was included. On treatment day 5, ^3H-labeled tyrosine, the substrate for tyrosinase, was added and 24 hours later, the supernatant was saved to be assayed for tyrosinase activity as described by Suzuki et al (see example 3). Duplicate samples from each were assayed, with triplicate dishes included in each group. Cell number in each dish was counted, and tyrosinase activity was expressed as dpm/10^6 cells and as % of the control. Tests results between separate tests cannot be compared due to differences in melanocyte cultures and to different passage number. Statistical analysis was carried out using ANOVA followed by Newman Kuels test.
It will be understood that this tyrosinase activation test relates to a late event after MC1R activation, compared to the earlier secondary messenger effect of the above cAMP test. As pointed out above, activity of tyrosinase requires days of treatment. Following are the results comparing the compounds in the test indicated: […]

Test [2] has as its target T1, MC1R. As to the kind of experiment: cAMP radioimmunoassay in human melanocyte culture 1750. How it is done: Compounds 1, 2, 3 and 4 were tested in various separate tests and using 2 different human melanocyte cultures, coded 1750 and 1753, that were derived from 2 different donors expressing functional MC1R. The melanocytes were plated at a density of 0.3*10^6 cells/well. After 48 hours, the melanocytes were treated with the different compound concentrations for 1 hour. Controls without compound were included in all experiments. In some experiments reference compound NDP-MSH was included. The reaction was stopped by addition of 50 μl N HCl and the supernatant in each well was used to measure cAMP using a radioimmunoassay as described by Suzuki 1996 (Suzuki I, Cone R D, Im S, Nordlund ii, Abdel-Malek Z: “Binding of melanotropic hormones to the MC1 receptor on human melanocytes stimulates proliferation and melanogenesis”. Endocrinology 137: 1627-1633, 1996). Duplicate samples from each well were assayed with triplicate wells included in each compound group. The results from different tests cannot be compared due to differences in melanocyte cultures and to different passage number. The mean of 6 cAMP measurements per group was expressed as % of the control group. Statistical analysis was carried out using ANOVA followed by Newman Kuels test. In some cases, unpaired t-test was used.

T1 sequence (Q01726 whole entry): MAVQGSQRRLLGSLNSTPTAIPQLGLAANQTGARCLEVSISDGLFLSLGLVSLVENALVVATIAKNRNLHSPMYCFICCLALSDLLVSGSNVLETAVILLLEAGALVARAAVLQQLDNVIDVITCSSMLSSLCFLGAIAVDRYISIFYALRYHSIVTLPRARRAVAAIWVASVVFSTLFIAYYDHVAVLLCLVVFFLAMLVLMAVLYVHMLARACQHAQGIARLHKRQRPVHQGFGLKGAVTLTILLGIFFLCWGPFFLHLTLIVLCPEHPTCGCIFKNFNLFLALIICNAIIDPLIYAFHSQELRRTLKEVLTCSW

With “(C2H5)3N—CH2—CO-Nle-Glu-His-D-Phe-Arg-Trp-NH2 [Compound 1]”, the “cAMP, highest overall efficacy value, % of the control group” value at MC1R [1] (Test 2, melanocytes 1753, at 10^-7 M, 1 hour treatment, p<0.05) turned out to be 431%. In the test on tyrosinase, the “tyrosinase activity, efficacy, % of the control” value (shortened to “tyrosinase activity, efficacy, %”) is recorded as 178%.

As for “(C2H5)3N—CH2—CO-Nle-Glu-His-D-Phe-homoArg-Trp-NH2 [Compound 3]”, the “cAMP, highest overall efficacy value, % of the control group” value on MC1R [2] (Test 1, melanocytes 1750, at 10^-7 M, 1 hour treatment, p<0.05) was found to be 327%. The “dose at which maximum effect on cAMP was achieved” value on MC1R [1] (Test 2, melanocytes 1753, p<0.05 vs control) is listed as 10^−9 M.

For the substance “(CH3)3N—(CH2)3—CO-Nle-Glu-His-D-Phe-Arg-Trp-NH2 [Compound 2]”, the “dose at which maximum effect on cAMP (vs control) was achieved” value at MC1R [2] (Test 1, melanocytes 1750, 1 hour treatment, p<0.05 vs control) was 10^−8 M. On MC1R [1] (Test 2, melanocytes 1753, p<0.05), the “lowest dose showing cAMP efficacy statistically different from control” value is 10^−11 M. Moreover, the “tyrosinase activity, efficacy, %” value in the test with tyrosinase is listed as 171%.

With “(CH3)3N—(CH2)3—CO-Nle-Glu-His-D-Phe-homoArg-Trp-NH2 [Compound 4]”, the “cAMP, highest efficacy, % of the control group” value at MC1R [1] (Test 3, melanocytes 1753, at 10^-7 M, 1 hour treatment, p<0.05) was determined as 253%.

Turning to NDP-MSH [reference compound], the “tyrosinase activity, efficacy, %” value in the test with tyrosinase turned out to be 166%.
